Results from US11571421B2, “GABAA positive allosteric modulator compounds for treatment of itch and/or dermatitis” (NeuroCycle Therapeutics, Inc., priority 2018, dated 2023).
Values joined by “and” are separate entries in the source; they are usually repeats but may differ in a detail not shown here. Equal entries are not always repeated.

System: Chloroquine (CQ)-Induced Itch Model in Male C57BL/6 Mice
Experiment: Chloroquine Induced Itch Model, PF-06372865 (Example 1)
Assay type: in vivo
Method: PF-06372865 was evaluated as an antipruritic and/or antidermatitis agent using a Chloroquine Induced Itch Model in male C57BL/6 mice.
Male C57BL/6 Mice (8-10 weeks) were used in the study. Animals were procured from CRL, Hylasco (CPSCEA registered animal supplier).
Mice were housed one per cage and maintained at controlled environmental conditions with 12-h light and dark cycles. The temperature and humidity of the room were maintained between 22±3° C. and 55±5%, respectively. The maximum and minimum temperature and relative humidity in the experimental rooms were recorded once daily. […]
PF-06372865 was weighed into a clean mortar. Liquefied Solutol (i.e., Polyoxyl 15 Hydroxystearate) was added drop wise and triturated using a pestle for 2-3 minutes, then Glycerol formal was added and mixed in same fashion. The volume was made up by slowly adding the required volume of water. The resulting mixture was mixed well using mild vortexing to provide a homogeneous suspension. (Details in below chart)
27 mg of chloroquine phosphate was weighed in a clean glass container. 6 mL PBS was added, and the resulting mixture was mixed well using mild vortexing to form the desired strength solution.
The right-side cheek area of all the animals was shaved with animal clippers 1 day prior to the experiment. Animals were randomized into different treatment groups (n=9/group) based on body weight to avoid variability in weights across groups. NCT10004 Phosphate and PF-06372865 formulations and chloroquine phosphate solution were prepared on the day of the experiment.
Animals were dosed per oral with respective treatment group using a dose volume of 10 ml/kg. Times of dosing were recorded. Immediately after compound treatment, animals were kept in an empty transparent chamber (23 cm length×17 cm width) for acclimatization and observation.
Ninety (90) minutes post compound dosing, 50-μl of chloroquine phosphate solution (a 200-μg dose) was injected intracutaneously into the animal's right cheek. Animals were returned to the same chamber for observation. Animals were observed by an observer blind to the treatment group for a period of 30 minutes post chloroquine injection. Total number of bouts of scratching directed at the ipsilateral cheek were recorded for 30 minutes.

[1] = 0.3 mg/kg PO, individual animals
[2] = 10 mg/kg PO, individual animals
[3] = 30 mg/kg PO, individual animals

CCn1cnc2c(-c3ccc(F)c(-c4ccc(S(=O)(=O)CC)cc4OC)c3)cnnc21 [PF-06372865]
Scratching bouts (Nos.) in 30 min, 0-5 min (0.3 mg/kg PO, MEAN, N=9): 2.22 Nos. | Scratching bouts (Nos.) in 30 min, 5-10 min (0.3 mg/kg PO, MEAN, N=9): 6.67 Nos. | Scratching bouts (Nos.) in 30 min, 10-15 min (0.3 mg/kg PO, MEAN, N=9): 26.22 Nos. | Scratching bouts (Nos.) in 30 min, 15-20 min (0.3 mg/kg PO, MEAN, N=9): 24.67 Nos. | Scratching bouts (Nos.) in 30 min, 20-25 min (0.3 mg/kg PO, MEAN, N=9): 21.00 Nos. | Scratching bouts (Nos.) in 30 min, 25-30 min (0.3 mg/kg PO, MEAN, N=9): 0.00 Nos. | Total Scratching bouts (0.3 mg/kg PO, MEAN, N=9): 80.78 Nos./30 min | Scratching bouts (Nos.) in 30 min, 0-5 min [1]: 0 Nos. (6×) and 1 Nos. and 15 Nos. and 4 Nos. | Scratching bouts (Nos.) in 30 min, 5-10 min [1]: 56 Nos. and 0 Nos. (6×) and 1 Nos. and 3 Nos. | Scratching bouts (Nos.) in 30 min, 10-15 min [1]: 47 Nos. and 0 Nos. (3×) and 19 Nos. and 46 Nos. and 76 Nos. and 21 Nos. and 27 Nos. | Scratching bouts (Nos.) in 30 min, 15-20 min [1]: 10 Nos. and 25 Nos. (2×) and 39 Nos. and 13 Nos. and 36 Nos. and 31 Nos. and 11 Nos. and 32 Nos. | Scratching bouts (Nos.) in 30 min, 20-25 min [1]: 0 Nos. (3×) and 49 Nos. and 33 Nos. and 27 Nos. (2×) and 24 Nos. and 29 Nos. | Scratching bouts (Nos.) in 30 min, 25-30 min [1]: 0 Nos. | Total Scratching bouts [1]: 113 Nos./30 min and 74 Nos./30 min and 25 Nos./30 min and 72 Nos./30 min and 33 Nos./30 min and 110 Nos./30 min and 149 Nos./30 min and 56 Nos./30 min and 95 Nos./30 min | Scratching bouts (Nos.) in 30 min, 0-5 min (1 mg/kg PO, MEAN, N=9): 1.22 Nos. | Scratching bouts (Nos.) in 30 min, 5-10 min (1 mg/kg PO, MEAN, N=9): 20.56 Nos. | Scratching bouts (Nos.) in 30 min, 10-15 min (1 mg/kg PO, MEAN, N=9): 9.11 Nos. | Scratching bouts (Nos.) in 30 min, 15-20 min (1 mg/kg PO, MEAN, N=9): 23.11 Nos. | Scratching bouts (Nos.) in 30 min, 20-25 min (1 mg/kg PO, MEAN, N=9): 8.33 Nos. | Scratching bouts (Nos.) in 30 min, 25-30 min (1 mg/kg PO, MEAN, N=9): 8.11 Nos. | Total Scratching bouts (1 mg/kg PO, MEAN, N=9): 70.44 Nos./30 min | Scratching bouts (Nos.) in 30 min, 0-5 min (1 mg/kg PO, individual animals): 0 Nos. (6×) and 1 Nos. and 8 Nos. and 2 Nos. | Scratching bouts (Nos.) in 30 min, 5-10 min (1 mg/kg PO, individual animals): 22 Nos. and 0 Nos. (2×) and 18 Nos. (2×) and 13 Nos. and 62 Nos. and 49 Nos. and 3 Nos. | Scratching bouts (Nos.) in 30 min, 10-15 min (1 mg/kg PO, individual animals): 9 Nos. (2×) and 0 Nos. (3×) and 13 Nos. and 1 Nos. and 4 Nos. and 46 Nos. | Scratching bouts (Nos.) in 30 min, 15-20 min (1 mg/kg PO, individual animals): 41 Nos. and 14 Nos. and 28 Nos. (2×) and 16 Nos. and 45 Nos. and 25 Nos. and 11 Nos. and 0 Nos. | Scratching bouts (Nos.) in 30 min, 20-25 min (1 mg/kg PO, individual animals): 28 Nos. and 0 Nos. (5×) and 18 Nos. and 8 Nos. and 21 Nos. | Scratching bouts (Nos.) in 30 min, 25-30 min (1 mg/kg PO, individual animals): 6 Nos. and 25 Nos. and 4 Nos. and 0 Nos. (4×) and 14 Nos. and 24 Nos. | Total Scratching bouts (1 mg/kg PO, individual animals): 106 Nos./30 min and 39 Nos./30 min and 81 Nos./30 min and 26 Nos./30 min and 93 Nos./30 min and 95 Nos./30 min and 71 Nos./30 min and 22 Nos./30 min and 101 Nos./30 min | Scratching bouts (Nos.) in 30 min, 0-5 min (3 mg/kg PO, MEAN, N=9): 4.89 Nos. | Scratching bouts (Nos.) in 30 min, 5-10 min (3 mg/kg PO, MEAN, N=9): 3.89 Nos. | Scratching bouts (Nos.) in 30 min, 10-15 min (3 mg/kg PO, MEAN, N=9): 11.44 Nos. | Scratching bouts (Nos.) in 30 min, 15-20 min (3 mg/kg PO, MEAN, N=9): 9.89 Nos. | Scratching bouts (Nos.) in 30 min, 20-25 min (3 mg/kg PO, MEAN, N=9): 4.33 Nos. | Scratching bouts (Nos.) in 30 min, 25-30 min (3 mg/kg PO, MEAN, N=9): 3.44 Nos. | Total Scratching bouts (3 mg/kg PO, MEAN, N=9): 37.89 Nos./30 min | Scratching bouts (Nos.) in 30 min, 0-5 min (3 mg/kg PO, individual animals): 16 Nos. and 0 Nos. (4×) and 19 Nos. and 1 Nos. and 3 Nos. and 5 Nos. | Scratching bouts (Nos.) in 30 min, 5-10 min (3 mg/kg PO, individual animals): 0 Nos. (7×) and 33 Nos. and 2 Nos. | Scratching bouts (Nos.) in 30 min, 10-15 min (3 mg/kg PO, individual animals): 44 Nos. and 4 Nos. and 0 Nos. (4×) and 10 Nos. and 16 Nos. and 29 Nos. | Scratching bouts (Nos.) in 30 min, 15-20 min (3 mg/kg PO, individual animals): 17 Nos. and 14 Nos. and 33 Nos. and 0 Nos. (4×) and 3 Nos. and 22 Nos. | Scratching bouts (Nos.) in 30 min, 20-25 min (3 mg/kg PO, individual animals): 13 Nos. and 0 Nos. (5×) and 14 Nos. and 3 Nos. and 9 Nos. | Scratching bouts (Nos.) in 30 min, 25-30 min (3 mg/kg PO, individual animals): 9 Nos. and 0 Nos. (5×) and 3 Nos. and 15 Nos. and 4 Nos. | Total Scratching bouts (3 mg/kg PO, individual animals): 99 Nos./30 min and 18 Nos./30 min and 66 Nos./30 min and 29 Nos./30 min and 24 Nos./30 min and 59 Nos./30 min and 3 Nos./30 min and 12 Nos./30 min and 31 Nos./30 min | Scratching bouts (Nos.) in 30 min, 0-5 min (10 mg/kg PO, MEAN, N=9): 0.00 Nos. | Scratching bouts (Nos.) in 30 min, 5-10 min (10 mg/kg PO, MEAN, N=9): 0.00 Nos. | Scratching bouts (Nos.) in 30 min, 10-15 min (10 mg/kg PO, MEAN, N=9): 7.33 Nos. | Scratching bouts (Nos.) in 30 min, 15-20 min (10 mg/kg PO, MEAN, N=9): 4.11 Nos. | Scratching bouts (Nos.) in 30 min, 20-25 min (10 mg/kg PO, MEAN, N=9): 2.78 Nos. | Scratching bouts (Nos.) in 30 min, 25-30 min (10 mg/kg PO, MEAN, N=9): 1.11 Nos. | Total Scratching bouts (10 mg/kg PO, MEAN, N=9): 15.33 Nos./30 min | Scratching bouts (Nos.) in 30 min, 0-5 min [2]: 0 Nos. | Scratching bouts (Nos.) in 30 min, 5-10 min [2]: 0 Nos. | Scratching bouts (Nos.) in 30 min, 10-15 min [2]: 0 Nos. (7×) and 33 Nos. (2×) | Scratching bouts (Nos.) in 30 min, 15-20 min [2]: 0 Nos. (6×) and 8 Nos. and 3 Nos. and 26 Nos. | Scratching bouts (Nos.) in 30 min, 20-25 min [2]: 0 Nos. (6×) and 12 Nos. and 9 Nos. and 4 Nos. | Scratching bouts (Nos.) in 30 min, 25-30 min [2]: 2 Nos. (2×) and 0 Nos. (6×) and 6 Nos. | Total Scratching bouts [2]: 2 Nos./30 min and 14 Nos./30 min and 41 Nos./30 min and 33 Nos./30 min and 0 Nos./30 min (2×) and 15 Nos./30 min and 3 Nos./30 min and 30 Nos./30 min | Scratching bouts (Nos.) in 30 min, 0-5 min (30 mg/kg PO, MEAN, N=9): 0.00 Nos. | Scratching bouts (Nos.) in 30 min, 5-10 min (30 mg/kg PO, MEAN, N=9): 0.00 Nos. | Scratching bouts (Nos.) in 30 min, 10-15 min (30 mg/kg PO, MEAN, N=9): 0.00 Nos. | Scratching bouts (Nos.) in 30 min, 15-20 min (30 mg/kg PO, MEAN, N=9): 0.00 Nos. | Scratching bouts (Nos.) in 30 min, 20-25 min (30 mg/kg PO, MEAN, N=9): 0.00 Nos. | Scratching bouts (Nos.) in 30 min, 25-30 min (30 mg/kg PO, MEAN, N=9): 0.00 Nos. | Total Scratching bouts (30 mg/kg PO, MEAN, N=9): 0.00 Nos./30 min | Scratching bouts (Nos.) in 30 min, 0-5 min [3]: 0 Nos. | Scratching bouts (Nos.) in 30 min, 5-10 min [3]: 0 Nos. | Scratching bouts (Nos.) in 30 min, 10-15 min [3]: 0 Nos. | Scratching bouts (Nos.) in 30 min, 15-20 min [3]: 0 Nos. | Scratching bouts (Nos.) in 30 min, 20-25 min [3]: 0 Nos. | Scratching bouts (Nos.) in 30 min, 25-30 min [3]: 0 Nos. | Total Scratching bouts [3]: 0 Nos./30 min | scratching bouts compared to vehicle treatment, significance (at 0.3, 1, 3, 10 and 30 mg/kg doses): Statistically significant decrease | total number of scratching bouts, dose response (quantified for 30 minutes post CQ injection, 0.3-30 mg/kg PO): dose dependent decrease
